Experiment [1] has as its system Phytophthora infestans. It is filed as in vivo, Phytophthora infestans on potato plants (variety Bintje). The settings on record: for Efficacy (Abbott formula): Trial 1, potato, spray 24 h before inoculation, notation 5 days after contamination.
In the next experiment the test system is Peronospora parasitica. Kind of experiment: In vivo test against Peronospora parasitica (crucifer downy mildew). As to conditions: cabbage, spray 24 h before contamination, grading 5 days. Also noted: species or system Peronospora parasitica on cabbage plants (Eminence variety). The method, then:
Spirotetramat is prepared by dilution of the SC100 g/l formulation in water to obtain the desired active material concentration.
Cabbage plants (Eminence variety) in starter cups, sown on a 50/50 peat soil-pozzolana substrate and grown at 18-20° C., are treated at the cotyledon stage by spraying with the aqueous suspension described above at 500, 125 and 31 mg/l.
Plants, used as controls, are treated with an aqueous solution not containing the active material.
After 24 hours, the plants are contaminated by spraying them with an aqueous suspension of Peronospora parasitica spores (37 500 spores per ml). The spores are collected from infected plants.
The contaminated cabbage plants are incubated for 5 days at 20° C., under a humid atmosphere.
(§1) Grading is carried out 5 days after the contamination, in comparison with the control plants.

In experiment [2] the test system is Phytophthora infestans. In kind it is in vivo, Phytophthora infestans on tomato plants (variety Rentita). As to conditions: Trial 3, tomato, preventive 24 h, notation 6 days after contamination.
For the next experiment, the system named is Plasmopara viticola. Nature of the experiment: In vivo test against Plasmopara viticola (vine downy mildew). The settings on record: from 25 to 200 g a.i./ha, spray 24 h before inoculation, grading 5 days (FIG. 4). The method, then: The treatment is done by spray application in a spray cabinet at 500 L/ha with the aqueous dilutions of spirotetramat SC100 g/l formulation from 25 to 200 g a.i./ha.
The treatment is applied on six vine plants (Cabernet sauvignon variety, 9 weeks old) 24 hours and the plants are placed in a climatic chamber at 18° C. before inoculation.
The inoculation consists on spraying the sporangia suspension calibrated at 100 000 sporangia/ml, at the lower leaf face of each plant 24 h after the treatment and the plants are then placed in a climatic chamber at 18° C. day and night with saturate humidity until the symptoms assessment.
as §1

Each structure is given as a SMILES string. Where two headings read alike, the source gives them in different places.

Take `CCOC(=O)OC1=C(c2cc(C)ccc2C)C(=O)N[C@]12CC[C@@H](OC)CC2` [spirotetramat]: the entries for the “Efficacy (Abbott formula)” value with Phytophthora infestans [1] (100 g a.i./ha) and with Phytophthora infestans [1] (1000 g a.i./ha) were 86% and 99%, respectively. For the same compound, the “Efficacy compared with standards” value in the experiment with Phytophthora infestans [1] (Trial 2, potato, around 150 g a.i./ha, high disease pressure, preventive 24 h (FIG. 2)) is reported as “equivalent to the best standard”. For the same compound, the “Activity on Peronospora parasitica” value in the experiment on Peronospora parasitica (31 mg/l active ingredient), with Peronospora parasitica (125 mg/l active ingredient) and in the experiment on Peronospora parasitica (500 mg/l active ingredient) was 100% throughout. The “Efficacy, disease controlled” value with Phytophthora infestans [2] (100 g a.i./ha) and with Phytophthora infestans [2] (200 g a.i./ha) was 95% each time. Also, the “Activity against Plasmopara viticola vine downy mildew” value in the experiment with Plasmopara viticola was determined as 100%.

The values above are taken from patent US20140336233A1 (priority 2011, published 2014).
